{"source": "patent US20250340551A1", "about": "“SMALL MOLECULE MODULATORS OF STAT6” (Gilead Sciences, Inc., priority 2024, published 2025)"}
{"biological_target": "human STAT6 (Homo sapiens (Human), UniProt P42226)", "sequence (P42226 122-658)": "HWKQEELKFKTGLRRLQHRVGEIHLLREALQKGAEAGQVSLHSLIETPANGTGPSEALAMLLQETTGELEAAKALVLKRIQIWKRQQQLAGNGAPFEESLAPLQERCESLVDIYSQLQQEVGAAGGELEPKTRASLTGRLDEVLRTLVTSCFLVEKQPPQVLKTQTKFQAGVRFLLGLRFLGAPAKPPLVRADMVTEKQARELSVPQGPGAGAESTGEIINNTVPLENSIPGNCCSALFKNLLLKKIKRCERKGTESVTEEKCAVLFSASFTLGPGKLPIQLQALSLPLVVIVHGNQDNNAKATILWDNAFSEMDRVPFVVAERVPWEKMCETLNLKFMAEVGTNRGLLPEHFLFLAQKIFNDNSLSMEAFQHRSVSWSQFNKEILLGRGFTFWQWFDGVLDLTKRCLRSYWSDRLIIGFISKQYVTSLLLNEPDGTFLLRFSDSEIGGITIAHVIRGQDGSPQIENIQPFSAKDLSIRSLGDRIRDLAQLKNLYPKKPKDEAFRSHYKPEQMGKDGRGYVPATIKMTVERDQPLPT", "test": "Surface plasmon resonance assay (Biacore 8K, binding to immobilized STAT6)", "conditions": "human STAT6 aa122-658, N-terminal His-tag, CM5 chip, 25° C.; geometric mean; read-out: STAT6 SPR Kd", "method_in_brief": "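Run at 25° C with His-tagged STAT6 aa122-658 (insect-cell expressed) amine-coupled to a CM5 chip, reference-subtracted, in PBS-P+ with 2% DMSO. Multi-cycle kinetics: 60 sec. contact, up to 300 sec. dissociation. Affinity fitted from late report-point binding isotherms, with Rmax both free and fixed to theoretical 1:1.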", "units": {"Kd": "nM"}}
{"molecule": "COC(=O)CNc1ccc(-c2ccnc3c2cc(CN2CCC(c4ccc(C(=O)N(C)C)cc4)CC2)n3C)cn1", "note": "[Example 1k26, Methyl 2-[[5-[2-[[4-[4-(dimethylcarbamoyl)phenyl]-1-piperidyl]methyl]-1-methyl-pyrrolo[2,3-b]pyridin-4-yl]-2-pyridyl]amino]acetate]", "Kd": 16.8}
{"molecule": "COc1cc(-c2ccnc3c2cc(CN2CCC(c4ccc(C(=O)N(C)C)cc4)CC2)n3C)c(C)nc1N", "note": "[Example 1k33, 4-[1-[[4-(6-Amino-5-methoxy-2-methyl-3-pyridyl)-1-methyl-pyrrolo[2,3-b]pyridin-2-yl]methyl]-4-piperidyl]-N,N-dimethyl-benzamide]", "Kd": 2770}
{"molecule": "CN(C)C(=O)c1ccc(C2CCN(Cc3cc4c(-c5ccc(N)nc5)ccnc4n3C)C(=O)C2)cc1", "note": "(single isomer, unassigned) [Example 1ae5]", "Kd": 46.4}
{"molecule": "[2H]C([2H])([2H])N(C(=O)c1ccc(C2CCN([C@@H](C)c3cc4c(-c5ccc(N)cn5)ccnc4n3C)CC2)c(C)c1)C([2H])([2H])[2H]", "note": "[Example 1af41, (S)-4-(1-(1-(4-(5-Aminopyridin-2-yl)-1-methyl-1H-pyrrolo[2,3-b]pyridin-2-yl)ethyl)-piperidin-4-yl)-3-methyl-N,N-bis(methyl-d3)benzamide]", "Kd": 3300}
{"molecule": "CNc1ccc(-c2ccnc3c2cc(CN2CCC(c4ccc(C(=O)N(C)C)cc4)CC2=O)n3C)cn1", "note": "(stereo in doubt) [Example 1s3, N,N-Dimethyl-4-[(4R)-1-[[1-methyl-4-[6-(methylamino)-3-pyridyl]pyrrolo[2,3-b]pyridin-2-yl]methyl]-2-oxo-4-piperidyl]benzamide]", "Kd": 23.2}
{"molecule": "CN(C)C(=O)c1ccc(C2CCN(Cc3cc4c(-c5cnc(N)cc5C#N)ccnc4n3C)CC2)cc1", "note": "[Example 1k53, 4-[1-[[4-(6-Amino-4-cyano-3-pyridyl)-1-methyl-pyrrolo[2,3-b]pyridin-2-yl]methyl]-4-piperidyl]-N,N-dimethyl-benzamide]", "Kd": 962}
{"molecule": "CNc1ccc(-c2ccnc3c2cc(CN2CCC(c4ccc(C(=O)N(C)C)cc4C)CC2)n3C)cn1", "note": "[Example 1s9, N,N,3-Trimethyl-4-[1-[[1-methyl-4-[6-(methylamino)-3-pyridyl]pyrrolo[2,3-b]pyridin-2-yl]methyl]-4-piperidyl]benzamide]", "Kd": 48.1}
{"molecule": "CN(C)C(=O)c1ccc(C2CCN(Cc3cc4c(-c5cnc(N)cc5F)ccnc4n3C)CC2)cc1", "note": "[Example 1k15, 4-[1-[[4-(6-Amino-4-fluoro-3-pyridyl)-1-methyl-pyrrolo[2,3-b]pyridin-2-yl]methyl]-4-piperidyl]-N,N-dimethyl-benzamide]", "Kd": 38.9}
{"molecule": "CC(=O)Nc1ccc(-c2ccnc3c2cc(CN2CCC(c4ccc(C(=O)N(C)C)cc4)CC2)n3C)cn1", "note": "[Example 1k2, 4-[1-[[4-(6-Acetamido-3-pyridyl)-1-methyl-pyrrolo[2,3-b]pyridin-2-yl]methyl]-4-piperidyl]-N,N-dimethyl-benzamide]", "Kd": 64}
{"molecule": "CN(C)C(=O)c1ccc(C2CCN(Cc3cc4c(-c5cnc(N)cn5)ccnc4n3C)CC2)cc1", "note": "[Example 1k8, 4-[1-[[4-(5-Aminopyrazin-2-yl)-1-methyl-pyrrolo[2,3-b]pyridin-2-yl]methyl]-4-piperidyl]-N,N-dimethyl-benzamide]", "Kd": 457}
{"molecule": "C[C@@H](c1cc2c(-c3ccc(N)nc3)ccnc2n1C)N1CCC(c2ccc(C(=O)N(C)C)cc2)CC1", "note": "[Example 1af11, (S)-4-(1-(1-(4-(6-amino-pyridin-3-yl)-1-methyl-1H-pyrrolo[2,3-b]pyridin-2-yl)ethyl)-piperidin-4-yl)-N,N-dimethyl-benzamide]", "Kd": 102}
{"molecule": "COc1nc(-c2ccnc3c2cc(CN2CCC(c4ccc(C(=O)N(C)C)cc4)CC2)n3C)ccc1N", "note": "[Example 1ad2, 4-(1-((4-(5-Amino-6-methoxypyridin-2-yl)-1-methyl-1H-pyrrolo[2,3-b]pyridin-2-yl)methyl)piperidin-4-yl)-N,N-dimethylbenzamide]", "Kd": 54}
{"molecule": "C[C@H](c1cc2c(-c3ccc(N)cn3)ccnc2n1C)N1CCC(c2ccc(C(=O)N(C)C)cc2)CC1", "note": "[Example 1af16, (R)-4-(1-(1-(4-(5-aminopyridin-2-yl)-1-methyl-1H-pyrrolo[2,3-b]pyridin-2-yl)ethyl)piperidin-4-yl)-N,N-dimethylbenzamide]", "Kd": 15.5}
{"molecule": "[2H]C([2H])([2H])N(C(=O)c1ccc(C2CCN(Cc3cc4c(-c5ccc(N)cn5)ccnc4n3C)CC2)cc1)C([2H])([2H])[2H]", "note": "[Example 1ae10, 4-[1-[[4-(5-Amino-2-pyridyl)-1-methyl-pyrrolo[2,3-b]pyridin-2-yl]methyl]-4-piperidyl]-N,N-bis(trideuteriomethyl)benzamide]", "Kd": 25.4}
{"molecule": "CNc1ccc(-c2ccnc3c2cc(CN2CCC(F)(c4ccc(C(=O)N(C)C)cc4)CC2)n3C)nc1", "note": "[Example 1o19, 4-[4-Fluoro-1-[[1-methyl-4-[5-(methylamino)-2-pyridyl]pyrrolo[2,3-b]pyridin-2-yl]methyl]-4-piperidyl]-N,N-dimethyl-benzamide]", "Kd": 173}
{"molecule": "CCOC(=O)c1nc(-c2ccnc3c2cc(CN2CCC(c4ccc(C(=O)N(C)C)cc4)CC2)n3C)ccc1N", "note": "[Example 1k78, Ethyl 3-amino-6-(2-((4-(4-(dimethylcarbamoyl)phenyl)piperidin-1-yl)methyl)-1-methyl-1H-pyrrolo[2,3-b]pyridin-4-yl)picolinate]", "Kd": 59.3}
{"molecule": "C[C@@H](c1cc2c(-c3ccc(N)nc3C#N)ccnc2n1C)N1CCC(c2ccc(C(=O)N(C)C)cc2)CC1", "note": "[Example 1af13, (S)-4-(1-(1-(4-(6-amino-2-cyanopyridin-3-yl)-1-methyl-1H-pyrrolo[2,3-b]pyridin-2-yl)ethyl)piperidin-4-yl)-N,N-dimethylbenzamide]", "Kd": 691}
{"molecule": "CNc1ccc(-c2ccnc3c2cc(CN2CC[C@H](c4ccc(C(=O)N(C)C)cc4)[C@@H](F)C2)n3C)cn1", "note": "(single isomer, unassigned) [Example 1s24]", "Kd": 36.7}
{"molecule": "[2H]C([2H])([2H])NC(=O)c1ccc(C2CCN(Cc3cc4c(-c5ccc(N)nc5C#N)ccnc4n3C)CC2)cc1", "note": "[Example 1ae15, 4-[1-[[4-(6-Amino-2-cyano-3-pyridyl)-1-methyl-pyrrolo[2,3-b]pyridin-2-yl]methyl]-4-piperidyl]-N-(trideuteriomethyl)benzamide]", "Kd": 201}
{"molecule": "CN(C)C(=O)c1ccc(C2CCN(Cc3cc4c(-c5ccc(N)c(C#N)n5)ccnc4n3C)CC2)cc1", "note": "[Example 1k75, 4-(1-((4-(5-Amino-6-cyanopyridin-2-yl)-1-methyl-1H-pyrrolo[2,3-b]pyridin-2-yl)methyl)piperidin-4-yl)-N,N-dimethylbenzamide]", "Kd": 83.9}
{"molecule": "[2H]C([2H])([2H])N(C(=O)c1ccc(C2CCN([C@H](C)c3cc4c(-c5ccc(N)nc5C#N)ccnc4n3C)CC2)c(C)c1)C([2H])([2H])[2H]", "note": "[Example 1af38, (R)-4-(1-(1-(4-(6-amino-2-cyanopyridin-3-yl)-1-methyl-1H-pyrrolo[2,3-b]pyridin-2-yl)ethyl)-piperidin-4-yl)-3-methyl-N,N-bis(methyl-d3)benzamide]", "Kd": 5270}
{"molecule": "COc1c(N)ncc(-c2ccnc3c2cc(CN2CCC(c4ccc(C(=O)N(C)C)cc4)CC2)n3C)c1C", "note": "[Example 1k19, 4-[1-[[4-(6-Amino-5-methoxy-4-methyl-3-pyridyl)-1-methyl-pyrrolo[2,3-b]pyridin-2-yl]methyl]-4-piperidyl]-N,N-dimethyl-benzamide]", "Kd": 738}
